# Reference: patent US20260232699A1, “COMPOSITIONS OF A CANNABINOID AND A KINASE INHIBITOR FOR THE TREATMENT OF CANCER” (SINOVEDA CANADA INC., priority 2023, published 2026)
# How the values were obtained:
# [1] = tested on: HCC PDX models 575, 658, and LI-011; test: Clonogenic assay on patient-derived xenograft tumor cells; format: cell-based; settings: Homo sapiens, 336 h; 575, 658, LI-011; 14 days continuous exposure; P=0.023; read-out: IC50 values, all PDX models examined
# Protocol: Tumor xenografts (patient-derived: 575, […], and LI-011; as well as cell line-derived: HepG2) were passaged as subcutaneous xenografts in NMRI nu/nu mice. Once tumor volumes reached 600-1000 mm^3, tumors were harvested according to FELASA and GV-SOLAS animal welfare guidelines. Tumors were mechanically disaggregated and subsequently incubated with collagenase type IV (41 U/mL), DNase I (125 U/mL), hyaluronidase type III (100 U/mL), and dispase II (1 U/mL) in RPMI 1640 medium at 37° C. for 60-120 minutes. Cells were filtered through 100 μm and 40 μm mesh size sieves and washed with the same media devoid of enzymes and stored in liquid nitrogen vapor phase.
# The clonogenic assay was carried out in 96 well, ultra-low attachment plates. Frozen aliquots of tumor cells were prepared from HepG2 HCC cells and the three tumor xenografts described above. Cells were thawed in Iscove's Modified Dulbecco's Medium (IMDM), supplemented with 20% (v/v) fetal calf serum, 50 μg/ml gentamicin, 1% ethanol, and 0.4% (w/v) agar prior to use. Test wells were first layered with 100 μl of the same soft-agar medium followed by 50 μl of media with tumor cells. Following solidification, the soft-agar layer was covered with 90 μl of the same culture medium without agar. After 24 hours, 10 μl of test compounds or control medium were added and left for 14 days (continuous exposure, 100 μl drug overlay). […]
# HepG2 cells = test: rtPCR gene expression analysis (TaqMan array card); format: cell-based, human; settings: 6 h at IC50 concentration, relative to negative control
# Protocol: Target cancer gene pathways were analyzed using a custom Taqman® array card exploring 90 unique genes associated with cancer related pathways (Kanehisa, Goto et al. 2010).
# Two million HepG2 cells in IMDM media with 20% FBS, and 1% ethanol were seeded in T75 flasks and incubated at 37° C., 7.5% CO2 until 70-80% confluent (approx. […]). […] Untreated cells were included as a negative control. Glyceraldehyde-3-phosphate dehydrogenase (GAPDH) was included as an endogenous control and used for normalization of the data.
# Following a 6-hour incubation with the test compounds, the RNA was extracted using Invitrogen's Dynabead mRNA DIRECT kit using the recommended protocol to provide 50 μL of a purified mRNA solution. Fifty μL of RT master mix was mixed into the mRNA solution and the mixture left to react at 37° C. for 60 minutes. Reverse transcriptase inactivation was performed at 95° C. for 5 minutes and the resulting cDNA samples were kept at 4° C. until use. Fifty-five microliters of TaqMan Fast Advance master mix were added to an equal amount of cDNA sample containing 1 μg/100 μl of cDNA, which was loaded into each card reservoir. The cards were centrifuged twice at 1200 RPM for 3 minutes in a Legend XFR centrifuge and the rtPCR reaction was conducted in a QuantStudio7 PCR instrument using the recommended settings with 40 amplification cycles. Data processing was done using ThermoFisher's Connect™ application.
# [2] = sorafenib, cited from earlier work
compound,measurement,setting,value
CNC(=O)c1cc(Oc2ccc(NC(=O)Nc3ccc(Cl)c(C(F)(F)F)c3)cc2)ccn1 [Sorafenib],IC50,[1],14.3 µM
same,ΔΔCt VEGFA,HepG2 cells; Angiogenesis,−2.101
same,ΔΔCt CAMK1,HepG2 cells; Ca Signaling,−1.249
same,ΔΔCt BAD,HepG2 cells; Cell Cycle,−1.712
same,ΔΔCt BAX,HepG2 cells; Cell Cycle,−1.835
same,ΔΔCt BCL2L1,HepG2 cells; Cell Cycle,−1.67
same,ΔΔCt BECN1,HepG2 cells; Cell Cycle,−1.627
same,ΔΔCt CCND2,HepG2 cells; Cell Cycle,−2.012
same,ΔΔCt CDK2,HepG2 cells; Cell Cycle,−1.072
same,ΔΔCt CDK4,HepG2 cells; Cell Cycle,−1.315
same,ΔΔCt CDK6,HepG2 cells; Cell Cycle,−1.273
same,ΔΔCt MAX,HepG2 cells; Cell Cycle,−1.278
same,ΔΔCt MNT,HepG2 cells; Cell Cycle,−1.155
same,ΔΔCt CTNNB1,HepG2 cells; Cellular Adhesion,−1.355
same,ΔΔCt MITF,HepG2 cells; Drug Resistance,−2.782
same,ΔΔCt TEAD2,HepG2 cells; HIPPO,−1.447
same,ΔΔCt SMO,HepG2 cells; Hedge Hog signaling,−1.125
same,ΔΔCt STAT1,HepG2 cells; JAK-STAT,−1.284
same,ΔΔCt ERBB2,HepG2 cells; MAP kinase,2.729
same,ΔΔCt MAP1LC3A,HepG2 cells; MAP kinase,−1.658
same,ΔΔCt MAP2K2,HepG2 cells; MAP kinase,−1.241
same,ΔΔCt MAP3K1,HepG2 cells; MAP kinase,−2.162
same,ΔΔCt MAPK8,HepG2 cells; MAP kinase,−1.245
same,ΔΔCt RASA1,HepG2 cells; MAP kinase,−2.013
same,ΔΔCt CRK,HepG2 cells; PI3K pathway,−3.778
same,ΔΔCt PIK3C2A,HepG2 cells; PI3K pathway,−2.308
same,ΔΔCt PIK3CA,HepG2 cells; PI3K pathway,−1.501
same,ΔΔCt PTEN,HepG2 cells; PI3K pathway,−1.165
same,ΔΔCt SMAD2,HepG2 cells; TGF signaling,−1.348
same,ΔΔCt GSK3B,HepG2 cells; Wnt signaling,−1.105
same,ΔΔCt ROCK1,HepG2 cells; Wnt signaling,−1.495
same,"Solubility, μg/ml FaSSIF","[2]; fasted simulated intestinal fluid, value marked [1]",3.3 [1] μg/ml
same,F (oral bioavailability),[2]; value marked [1],0.38-0.49[1]
same,ClH (Hepatic clearance),[2]; value marked [3],~0.051-0.066[3] L/min
same,ClTB (Total body clearance),[2]; value marked [3],0.051-0.066[3] L/min
same,"Vd, ss (Volume of distribution at steady state)",[2]; value marked [3],1.01-1.3[3] L/kg
same,t½ (Half-life),[2]; value marked [3],14.09-18.23[3] hours
